Test results as given in US5099015A, “Trifluoromethyl 1-carba(1-dethia)cephems” (Eli Lilly and Company, priority 1991, dated 1992).
Converted amounts (≈) assume the structure as drawn. Read-outs that look alike come from different tables or passages of the source.

What was measured:
Assay in all cases: Agar dilution antibacterial test (MIC)
Type in all cases: cell-based
[1] = tested on: Citro CF17
Procedure: (§1) Fresh overnight cultures of test bacteria were diluted to approximately 1x(10)4 cells/microliter and applied in one microliter volumes to the surfaces of the agar plates. The innoculated plates were incubated overnight at 35° C. in ambient air. Minimum inhibitory concentration (mic) endpoints were recorded as the lowest antibiotic concentrations in micrograms per milliliter that inhibited the development of visible growth on the plates. The following summarizes the results of such tests with the compounds of the examples listed above.

[2] = tested on: Enterobacter aerogenes C32
Procedure: as §1

[3] = tested on: Enterobacter aerogenes EB17
Procedure: as §1

[4] = tested on: Enterobacter cloacae 265A
Procedure: as §1

[5] = tested on: Enterobacter cloacae EB5
Procedure: as §1

[6] = tested on: Enterococcus faecalis 2041
Procedure: as §1

[7] = tested on: Enterococcus faecium X66
Procedure: as §1

[8] = tested on: Escherichia coli EC14
Procedure: as §1

[9] = tested on: Escherichia coli N10
Procedure: as §1

[10] = tested on: Escherichia coli TEM
Procedure: as §1

[11] = tested on: Haemophilus influenzae 76; conditions: read-out: MIC
Procedure: as §1

[12] = tested on: Haemophilus influenzae C.L.
Procedure: as §1

[13] = tested on: Klebsiella pneumoniae KAE
Procedure: as §1

[14] = tested on: Klebsiella pneumoniae X26; conditions: read-out: MIC
Procedure: as §1

[15] = tested on: Klebsiella pneumoniae X68
Procedure: as §1

[16] = tested on: Morg morg PR15
Procedure: as §1

[17] = tested on: Proteus incon PR33
Procedure: as §1

[18] = tested on: Proteus rett C24; conditions: Proteus rett C24
Procedure: as §1

[19] = tested on: Salmonella 1335
Procedure: as §1

[20] = tested on: Salmonella X514
Procedure: as §1

[21] = tested on: Serratia SE3
Procedure: as §1

[22] = tested on: Serratia X99
Procedure: as §1

[23] = tested on: Shig sonn. N9
Procedure: as §1

[24] = tested on: Staphylococcus aureus NRRL X1.1
Procedure: as §1

[25] = tested on: Staphylococcus aureus S13E
Procedure: as §1

[26] = tested on: Staphylococcus aureus V41
Procedure: as §1

[27] = tested on: Staphylococcus aureus X400
Procedure: as §1

[28] = tested on: Staphylococcus epidermidis 222
Procedure: as §1

[29] = tested on: Staphylococcus epidermidis EPI270
Procedure: as §1

[30] = tested on: Staphylococcus pneumoniae Park 1; conditions: PARK1, read-out: MIC
Procedure: as §1

[31] = tested on: Staphylococcus pyogenes C203; conditions: read-out: MIC
Procedure: as §1

[32] = tested on: Acom AC12
Procedure: as §1

[33] = Klebsiella aerogenes, read-out: MIC

N[C@@H](C(=O)N[C@@H]1C(=O)N2C(C(=O)O)=C(C(F)(F)F)CC[C@H]12)c1ccccc1 [Compound 1, 7β-[D-α-(amino)phenylacetylamino]-3-trifluoromethyl-1-carba-(1-dethia)-3-cephem-4-carboxyl ic acid]
MIC ([1]; read-out: MIC): 8 mg/L (≈ 20.9 µM)
MIC [2, 33]: 4 mg/L (≈ 10.4 µM)
MIC [3, 33]: 4 mg/L (≈ 10.4 µM)
MIC ([4]; read-out: MIC): 16 mg/L (≈ 41.7 µM)
MIC ([5]; read-out: MIC): 8 mg/L (≈ 20.9 µM)
MIC ([6]; read-out: MIC): 16 mg/L (≈ 41.7 µM)
MIC ([7]; read-out: MIC): 32 mg/L (≈ 83.5 µM)
MIC ([8]; read-out: MIC): 0.5 mg/L (≈ 1.3 µM)
MIC ([9]; read-out: MIC): 2 mg/L (≈ 5.22 µM)
MIC ([10]; read-out: MIC): 0.5 mg/L (≈ 1.3 µM)
MIC [11]: 1 mg/L (≈ 2.61 µM)
MIC ([12]; read-out: MIC): 0.5 mg/L (≈ 1.3 µM)
MIC ([13]; read-out: MIC): 8 mg/L (≈ 20.9 µM)
MIC [14]: 0.25 mg/L (≈ 0.652 µM)
MIC ([15]; read-out: MIC): 0.5 mg/L (≈ 1.3 µM)
MIC ([16]; read-out: MIC): 32 mg/L (≈ 83.5 µM)
MIC ([17]; read-out: MIC): 16 mg/L (≈ 41.7 µM)
MIC ([18]; read-out: MIC): 8 mg/L (≈ 20.9 µM)
MIC ([19]; read-out: MIC): 1 mg/L (≈ 2.61 µM)
MIC ([20]; read-out: MIC): 0.25 mg/L (≈ 0.652 µM)
MIC ([21]; read-out: MIC): 32 mg/L (≈ 83.5 µM)
MIC ([22]; read-out: MIC): 8 mg/L (≈ 20.9 µM)
MIC ([23]; read-out: MIC): 1 mg/L (≈ 2.61 µM)
MIC ([24]; NRRLX1.1, read-out: MIC): 2 mg/L (≈ 5.22 µM)
MIC [25]: 32 mg/L (≈ 83.5 µM)
MIC ([26]; read-out: MIC): 16 mg/L (≈ 41.7 µM)
MIC ([27]; read-out: MIC): 64 mg/L (≈ 167 µM)
MIC ([28]; read-out: MIC): 4 mg/L (≈ 10.4 µM)
MIC ([29]; read-out: MIC): 4 mg/L (≈ 10.4 µM)
MIC [30]: 0.125 mg/L (≈ 0.326 µM)
MIC [31]: 0.06 mg/L (≈ 0.157 µM)

N[C@@H](C(=O)N[C@@H]1C(=O)N2C(C(=O)O)=C(C(F)(F)F)CC[C@H]12)c1ccc(O)cc1 [Compound 2, [6R,7S]-7β-[D-α-(amino)-4-hydroxyphenylacetylamino]-3-trifluoromethyl-1-carba-1-dethia-3-cephem-4-carboxylic acid]
MIC ([32]; read-out: MIC): 21.3 mg/L (≈ 53.3 µM)
MIC ([1]; read-out: MIC): 5.3 mg/L (≈ 13.3 µM)
MIC [2, 33]: 2.08 mg/L (≈ 5.21 µM)
MIC [3, 33]: 1.83 mg/L (≈ 4.58 µM)
MIC ([4]; read-out: MIC): 2.3 mg/L (≈ 5.76 µM)
MIC ([5]; read-out: MIC): 4.3 mg/L (≈ 10.8 µM)
MIC ([6]; read-out: MIC): 22.4 mg/L (≈ 56.1 µM)
MIC ([7]; read-out: MIC): 32 mg/L (≈ 80.1 µM)
MIC ([8]; read-out: MIC): 0.48 mg/L (≈ 1.2 µM)
MIC ([9]; read-out: MIC): 0.85 mg/L (≈ 2.13 µM)
MIC ([10]; read-out: MIC): 0.75 mg/L (≈ 1.88 µM)
MIC [11]: 0.9 mg/L (≈ 2.25 µM)
MIC ([12]; read-out: MIC): 0.7 mg/L (≈ 1.75 µM)
MIC ([13]; read-out: MIC): 2.3 mg/L (≈ 5.76 µM)
MIC [14]: 0.3 mg/L (≈ 0.751 µM)
MIC ([15]; read-out: MIC): 0.6 mg/L (≈ 1.5 µM)
MIC ([16]; read-out: MIC): 26.7 mg/L (≈ 66.9 µM)
MIC ([17]; read-out: MIC): 2.3 mg/L (≈ 5.76 µM)
MIC ([18]; read-out: MIC): 6.7 mg/L (≈ 16.8 µM)
MIC ([19]; read-out: MIC): 0.58 mg/L (≈ 1.45 µM)
MIC ([20]; read-out: MIC): 0.19 mg/L (≈ 0.476 µM)
MIC ([21]; read-out: MIC): 16 mg/L (≈ 40.1 µM)
MIC ([22]; read-out: MIC): 4.7 mg/L (≈ 11.8 µM)
MIC ([23]; read-out: MIC): 0.58 mg/L (≈ 1.45 µM)
MIC ([24]; NRRLX1.1, read-out: MIC): 0.85 mg/L (≈ 2.13 µM)
MIC [25]: 70.4 mg/L (≈ 176 µM)
MIC ([26]; read-out: MIC): 7.2 mg/L (≈ 18 µM)
MIC ([27]; read-out: MIC): 102 mg/L (≈ 255 µM)
MIC ([28]; read-out: MIC): 2.2 mg/L (≈ 5.51 µM)
MIC ([29]; read-out: MIC): 4.4 mg/L (≈ 11 µM)
MIC [30]: 0.2 mg/L (≈ 0.501 µM)
MIC [31]: 0.025 mg/L (≈ 0.0626 µM)

CON=C(C(=O)N[C@@H]1C(=O)N2C(C(=O)O)=C(C(F)(F)F)CC[C@H]12)c1csc(N)n1 [Compound 4, [7S,6R]-7-([2-Amino-4-thiazolyl(methoxyimino)acetyl]amido)-3-trifluoromethyl-1-carba(b 1-dethia)-3-cephem-4-carboxylic acid]
MIC [32]: 16 mg/L (≈ 36.9 µM)
MIC [1]: 8 mg/L (≈ 18.5 µM)
MIC [2]: .25 mg/L (≈ 0.577 µM)
MIC [3]: .125 mg/L (≈ 0.288 µM)
MIC [4]: 64 mg/L (≈ 148 µM)
MIC [5]: .25 mg/L (≈ 0.577 µM)
MIC [6]: 1 mg/L (≈ 2.31 µM)
MIC [7]: > 128 mg/L
MIC [8]: .03 mg/L (≈ 0.0692 µM)
MIC [9]: .06 mg/L (≈ 0.138 µM)
MIC [10]: .125 mg/L (≈ 0.288 µM)
MIC [12]: .015 mg/L (≈ 0.0346 µM)
MIC [13]: 32 mg/L (≈ 73.8 µM)
MIC [15]: .015 mg/L (≈ 0.0346 µM)
MIC [16]: 4 mg/L (≈ 9.23 µM)
MIC [17]: .125 mg/L (≈ 0.288 µM)
MIC [18]: 1 mg/L (≈ 2.31 µM)
MIC [19]: .06 mg/L (≈ 0.138 µM)
MIC [20]: .015 mg/L (≈ 0.0346 µM)
MIC [21]: 2 mg/L (≈ 4.62 µM)
MIC [22]: .5 mg/L (≈ 1.15 µM)
MIC [23]: .06 mg/L (≈ 0.138 µM)
MIC [24]: 4 mg/L (≈ 9.23 µM)
MIC [25]: 16 mg/L (≈ 36.9 µM)
MIC [26]: 8 mg/L (≈ 18.5 µM)
MIC [27]: 128 mg/L (≈ 295 µM)
MIC [28]: 4 mg/L (≈ 9.23 µM)
MIC [29]: 8 mg/L (≈ 18.5 µM)
